Source: PMC9763021, “Comprehensive Assessment of Biomolecular Interactions of Morpholine-Based Mixed Ligand Cu(II) and Zn(II) Complexes of 2,2′-Bipyridine as Potential Anticancer and SARS-CoV-2 Agents: A Synergistic Experimental and Structure-Based Virtual Screening” (Bioinorganic Chemistry and Applications, 2022)

Key:
[1] = system: CT-DNA; assay: DNA cleavage by gel electrophoresis in H2O2 environment; assay type: biochemical, calf thymus; details: DNA + H2O2, Tris-HCl pH 7.4, agarose gel
Description: The characteristics were examined of all substances along with DNA containing H2O2 and Tris-HCl buffer solution (pH: 7.4). The tank solution's gel layer was lifted out after the experiment was finished and put in front of a UV transilluminator. Additionally, each band lane was scrutinized with control (DNA + H2O2).
Using the gel electrophoresis method, the DNA nuclease properties for all samples were assessed under the H2O2 environment. The examined DNA nuclease efficacy for all complexes (1a-2a) was contrasted with free ligand (HL) and CT-DNA alone. The raw data for electrophoretic gels and blots were also enclosed in the electronic supplementary file (Figure S15). In Figure 1, no substantial nuclease activity can be seen in the control (lane 1; DNA + H2O2) even after a lot of time has passed and the free ligand (HL) (lane: 2) was monitored as immobile in an H2O2 environment. […] Furthermore, ROS include O2^•−, H2O2, OH^•, ROOH, ROO^•, HOCl, and ^1O2 (singlet oxygen) and ozone (O3), which play essential roles in living systems. Consequently, it has commonly been acknowledged that ROS plays a dual physiological role in controlling a variety of illnesses as well as cellular homeostasis (self-regulating processes such as thermoregulation, blood glucose regulation, calcium/potassium homeostasis, and osmoregulation). […] Additionally, it is widely known that NADPH oxidase generates reactive oxygen species as a portion of its antibacterial effect on phagocytic cells. Nevertheless, these types of enzymes seem to be present in a variety of other cells as well and may have significant signalling pathway functions. When noncarcinogenic toxicity events occur, ROS has the ability to alter cell function as well as affect the genes of cancer at several levels. OH^• can attack DNA, proteins, and lipids due to its high reactivity among ROS. The hydroxyl radical is a key participant in free radical-mediated hazardous reactions because of its great reactivity. The free radicals are also essential for the redox regulation of many cellular signalling pathways and proper cellular functions. […]

[2] = system: CT-DNA; assay: DNA thermal denaturation (biothermodynamic properties); assay type: binding, calf thymus; details: for Tm (K) / Tm °C of DNA-compound adduct: 260 nm, [DNA]/[Complex] = 1; for Tm °C of DNA-compound adduct: CT-DNA alone 68°C; for ΔH°: Van't Hoff equation; for ΔTm °C: versus free DNA (68°C); for ΔG°: −R.Tm.lnKm
Description: Thermal denaturation characteristics were executed by a UV-visible spectrophotometer in a temperature-controlled sample container in both the presence and absence of the substances. In a Tris-HCl buffer solution with a pH of 7.4, all substances were incubated with CT-DNA in a 1 : 1 ratio. Temperature increases of two degrees Celsius per minute were applied to test substances in the range of 25 to 100°C, and the changes in absorbance at 260 nm were carefully scrutinized.
DNA denaturation contributes to the root cause of several chronic diseases, hereditary disorders, and a reduction in the ability of DNA repair to work properly. The biothermodynamic properties were further supported to determine the ability of stabilization of the double-standard DNA, and it offers details on the structural alterations, the degree of the DNA-compound system, the external binding-mediated neutralization of phosphate charges on DNA, and the stacking interactions, all of which work together to raise the DNA's melting point. […] The Van't Hoff (9) and Gibbs Helmholtz equations (10) were supportive in evaluating the biothermodynamic parameters, which are enclosed in Table 2. […] The influencing factors between test compounds and DNA mostly depend on the type of interaction mode. Because of the driving forces, H-bonds, weak Van der Waals forces, and electrostatic modes of binding all occur while the enthalpy is favourable. Hydrophobic forces induce binding while entropy is favourable; on the other hand, the loss of structural degrees of freedom leads to undesirable entropic changes. As per Ross and colleagues, the findings for ΔH° and ΔS° can alternatively be derived in the following favourable sequence. If ΔH° > 0 and ΔS° > 0, this attributes intercalation due to hydrophobic forces of attraction. If ∆H° < 0 and ΔS° < 0, this involves weak Van der Waals forces of attraction and H-bonding interactions. On the other hand, if ΔH° < 0 (or), ΔH°≈0 and ∆S° > 0, this indicates the electrostatic mode of binding possible between DNA and compounds [28, 68]. […] Furthermore, it is widely acknowledged that the hydration and generation of the compound-deoxyribonucleic acid adduct system via the counter ion liberating mechanism are highly dependent on the hydrophobic forces of attraction.

| Compound | DNA cleavage (nuclease activity) [1] | ΔS° [2] | Tm (K) [2] [K] | Tm °C of DNA-compound adduct [2] [°C] | Binding constant Kr at 298 K [2] | ΔH° [2] | ΔTm °C [2] [°C] | ΔG° [2] |
| --- | --- | --- | --- | --- | --- | --- | --- | --- |
| [Cu+2].[O-]c1ccccc1N=Cc1ccc(N2CCOCC2)cc1.[O-]c1ccccc1N=Cc1ccc(N2CCOCC2)cc1.c1ccc(-c2ccccn2)nc1 [(1a), [Cu(L)2(bpy)]] | complete DNA cleavage | –6.9577 cal mol^–1 | 353 | 80 | 1.9000 × 10^4 M^–1 | –7.9071 kcal mol^–1 | 12 | –5.4511 kcal mol^–1 |
| [O-]c1ccccc1N=Cc1ccc(N2CCOCC2)cc1.[O-]c1ccccc1N=Cc1ccc(N2CCOCC2)cc1.[Zn+2].c1ccc(-c2ccccn2)nc1 [(2a), [Zn(L)2(bpy)]] | partially cleaves DNA | –8.4501 cal mol^–1 | 351 | 78 | 1.8287 × 10^4 M^–1 | –8.3292 kcal mol^–1 | 10 | –5.3632 kcal mol^–1 |
| Oc1ccccc1N=Cc1ccc(N2CCOCC2)cc1 [(HL), 2-(4-morpholinobenzylideneamino)phenol] | immobile | –13.7851 cal mol^–1 | 347 | 74 | 1.5169 × 10^4 M^–1 | –9.8083 kcal mol^–1 | 6 | –5.0249 kcal mol^–1 |
